Measured values as given in ChEMBL document CHEMBL1130368, “Potent carboxylate inhibitors of stromelysin containing P2 piperazic acids and P1 biaryl moeities” (Bioorg Med Chem Lett, 1997).

target: Stromelysin-1 (Homo sapiens, UniProt P08254); assay: Inhibition of Matrix metalloprotease-3 by MCA peptide assay
Sequence (P08254 whole entry): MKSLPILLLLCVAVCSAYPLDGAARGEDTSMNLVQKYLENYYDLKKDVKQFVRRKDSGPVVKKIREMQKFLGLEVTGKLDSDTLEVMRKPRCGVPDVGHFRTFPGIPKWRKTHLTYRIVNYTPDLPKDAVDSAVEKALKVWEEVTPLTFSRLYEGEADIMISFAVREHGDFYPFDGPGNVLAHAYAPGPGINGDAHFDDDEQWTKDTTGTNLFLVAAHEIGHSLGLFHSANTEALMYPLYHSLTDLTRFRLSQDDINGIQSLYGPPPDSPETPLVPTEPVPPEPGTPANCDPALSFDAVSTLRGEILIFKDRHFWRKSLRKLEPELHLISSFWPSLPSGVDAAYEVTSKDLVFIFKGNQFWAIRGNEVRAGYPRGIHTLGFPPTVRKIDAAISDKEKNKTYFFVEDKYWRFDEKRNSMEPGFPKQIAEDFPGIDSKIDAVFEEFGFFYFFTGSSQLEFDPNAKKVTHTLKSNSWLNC

Row | Ki [nM] | IC50 [nM] | SMILES
1 | 21 | – | CCCC[C@@H](C[C@@H](CCc1ccc(-c2ccccc2)cc1)C(=O)N[C@@H](Cc1ccc(OC)cc1)C(=O)NC)C(=O)O
2 | – | 30 | CNC(=O)[C@@H]1CCCNN1C(=O)[C@H](CC(C)C)[C@H](C)C(=O)NO
3 | – | > 200000 | CNC(=O)[C@@H]1CCCNN1C(=O)[C@H](CCOc1ccc(C(C)C)cc1)N[C@H](C)C(=O)O
4 | 77 | – | CNC(=O)[C@@H]1CCCNN1C(=O)[C@H](CCOc1ccc(-c2ccccc2)cc1)N[C@H](C)C(=O)O
5 | 550 | – | CCCCc1ccc(OCC[C@H](N[C@H](C)C(=O)O)C(=O)N2NCCC[C@H]2C(=O)NC)cc1
6 | 42 | – | CCCC[C@@H](C[C@@H](CCc1ccc(-c2ccccc2)cc1)C(=O)N1NCCC[C@H]1C(=O)NC)C(=O)O
7 | 552 | – | CNC(=O)[C@@H]1CCCNN1C(=O)[C@H](CCOc1ccc(Cc2ccccc2)cc1)N[C@H](C)C(=O)O
8 | – | 55000 | CNC(=O)[C@H](Cc1ccc(OC)cc1)NC(=O)[C@H](CCc1ccccc1)C[C@H](C)C(=O)O
9 | – | > 200000 | CNC(=O)[C@@H]1CCCNN1C(=O)[C@H](CCOc1ccc(CC2CCCC2)cc1)N[C@H](C)C(=O)O
10 | – | 81 | CNC(=O)[C@H](Cc1ccc(OC)cc1)NC(=O)[C@H](CCc1ccc(-c2ccccc2)cc1)C[C@H](C)C(=O)O
